{"source": "patent US7041701B2", "about": "“Triterpenoid derivatives” (Univerzita Palackeho V Olomouci, priority 2000, dated 2006)", "test_system": "Rb protein", "assay": "Rb protein phosphorylation state, SDS-PAGE/Western blot in CEM cells", "assay_type": "cell-based, human", "procedure": "Since Rb protein contains multiple phosphorylation sites for CDKs, its phosphorylated form has molecular weight about 110 kDa, while the molecular weight of hypophosphorylated protein is only 105 kDa This small difference in molecular weight is enough to separate both forms by conventional SDS-PAGE electrophoresis.\nCEM cells were cultured in Dulbeco's modified essential medium with 4.5 g dextrose/l, 10% of foetal calf serum, 2 mM glutamine, 100 U/ml penicillin and 100 μg/ml streptomycin with/without below indicated concentrations of betulkic acid (BA) or I.3. At selected time points, cells were harvested, washed in ice cold Hank's balanced salt solution and solubilized on ice using the SDS-PAGE sample buffer containing protease and phosphatase inhibitors (10 μg/ml of leupeptin, 10 μg/ml of aprotinin, 10 μg/ml of soybean trypsin inhibitor, 100 μmol of benzamide, 1 mM of sodium vanadate, 1 mM of NaF, 1 mM of phenylphosphate) and boiled immediately.\nTotal cellular proteins (100 μg/well) were separated on SDS-PAGE electrophoresis, blotted on polyvinyldifluoride membranes and total Rb protein, including proteolytic fragment(s) were detected using a pRb monoclonal antibody (Oncogene, Germany, Rb(AS5), Cat# OP66 Rev 2 Sep. 1996 EB, Clone LM95.1) and visualized by chemilumniuscence (ECL-Westeg Blotting System, Amersham). Details of the Western blot technique are described in Ausubel, F. M., Brent, R., Kingston, P E., Moore, D. D., Seidman, J. G., Smith, J. A., Struhl, K (Eds): Short Protocols-in Molecular Biology, 2nd edition, John Wiley & Sons, New York, Chichester, Brisbane, Toronto, Singapore, 1992, page 10–33–10–35.", "data": [{"compound": "CC(=O)OC[C@@]1(C(=O)O)CC[C@]2(C)[C@H](CC[C@@H]3[C@@]4(C)CC[C@H](OC(C)=O)C(C)(C)[C@@H]4CC[C@]32C)C1=O", "note": "[I.3, 3β,28-diacetoxy-18-oxo-19,20,21,29,30-pentanorlupan-22-oic acid]", "values": [{"measurement": "time to appearance of hypophosphorylated form of Rb", "setting": "7 μM", "result": 2, "unit": "h"}, {"measurement": "time to appearance of hypophosphorylated form of Rb", "setting": "20 μM", "result": 0.25, "unit": "h"}, {"measurement": "cleavage of Rb protein (42 kDa fragment, caspase activation)", "setting": "Western blot", "result": "time and concentration dependent appearance of an immunoreactive fragment of Rb protein"}, {"measurement": "dephosphorylation of Rb protein (shift 110 kDa to 105 kDa)", "setting": "Western blot (FIG. 3)", "result": "rapidly dephosphorylated"}]}]}
